Results reported in ChEMBL document CHEMBL1155618, “Junceellolides E-G, new briarane diterpenes from the West Pacific Ocean gorgonian Junceella fragilis” (J Nat Prod, 2000).
Active and inactive are the calls of the source.

Legend:
Format in all cases: functional, cell-based
P388 = test: Cytotoxicity against mouse P388 cells
A549 = test: Cytotoxicity against human A549 cells
HT-29 = test: Cytotoxicity against human HT29 cells

Measured: Activity

CCC(=O)O[C@@H]1CC/C(C)=C\[C@@H]2OC(=O)[C@H](C)[C@@]2(O)[C@H](OC(C)=O)[C@H]2[C@]3(CC[C@H](OC(C)=O)[C@]12C)CO3
inactive: all assays above

CC(=O)O[C@@H]1[C@@H]2[C@@](C)([C@H](O)CC/C(C)=C\[C@@H]3OC(=O)[C@H](C)[C@]31O)[C@@H](O)CC[C@]2(C)O
inactive: all assays above

C=C1CC[C@H](OC(C)=O)[C@@]2(C)[C@H]1[C@@H](OC(C)=O)[C@@]1(O)[C@H](/C=C(/C)CC[C@H]2OC(C)=O)OC(=O)[C@@H]1C
inactive: all assays above

C=C1CC[C@H](OC(C)=O)[C@@]2(C)[C@H]1[C@@H](OC(C)=O)[C@@]1(O)[C@H](/C=C(/C)CC[C@H]2OC(=O)CC)OC(=O)[C@@H]1C
inactive: all assays above
